One assay addresses T1, Protein Mdm4 (Homo sapiens, UniProt O15151).
T1 sequence (O15151 whole entry): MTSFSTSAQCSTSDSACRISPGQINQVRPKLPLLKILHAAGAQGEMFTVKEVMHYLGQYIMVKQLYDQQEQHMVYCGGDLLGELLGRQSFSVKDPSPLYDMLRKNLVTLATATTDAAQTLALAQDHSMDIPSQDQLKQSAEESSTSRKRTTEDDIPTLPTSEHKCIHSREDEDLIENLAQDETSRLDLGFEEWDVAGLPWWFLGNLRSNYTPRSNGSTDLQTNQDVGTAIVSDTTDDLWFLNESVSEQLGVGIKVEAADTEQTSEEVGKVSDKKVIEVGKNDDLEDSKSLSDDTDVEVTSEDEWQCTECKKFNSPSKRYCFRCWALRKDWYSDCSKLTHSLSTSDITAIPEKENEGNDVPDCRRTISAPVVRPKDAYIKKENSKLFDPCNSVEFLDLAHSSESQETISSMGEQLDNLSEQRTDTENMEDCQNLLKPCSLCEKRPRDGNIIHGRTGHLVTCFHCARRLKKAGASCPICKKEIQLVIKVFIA

Assay [1] deals with E3 ubiquitin-protein ligase Mdm2 (Homo sapiens, UniProt Q00987).
Sequence of E3 ubiquitin-protein ligase Mdm2 (Q00987 whole entry): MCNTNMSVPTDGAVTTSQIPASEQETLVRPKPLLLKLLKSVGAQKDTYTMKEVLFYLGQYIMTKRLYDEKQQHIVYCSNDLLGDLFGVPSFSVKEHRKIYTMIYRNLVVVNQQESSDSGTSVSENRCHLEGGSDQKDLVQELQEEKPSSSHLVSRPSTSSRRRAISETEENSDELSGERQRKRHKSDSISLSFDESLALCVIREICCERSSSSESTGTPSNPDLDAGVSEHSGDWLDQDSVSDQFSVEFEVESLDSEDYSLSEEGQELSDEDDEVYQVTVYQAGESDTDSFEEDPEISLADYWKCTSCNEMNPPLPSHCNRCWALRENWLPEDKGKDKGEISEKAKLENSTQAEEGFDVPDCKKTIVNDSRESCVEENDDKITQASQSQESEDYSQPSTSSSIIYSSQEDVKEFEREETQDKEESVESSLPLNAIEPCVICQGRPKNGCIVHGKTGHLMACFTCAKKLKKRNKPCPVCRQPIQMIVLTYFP
The test system of assay [2] is HCT-116. Put plainly: Induction of apoptosis in human HCT116 cells assessed as late apoptotic cells expressing wild type p53 at 20 uM measured after 72 hrs by annexin V-FITC/propidium iodide staining-based flow cytometry analysis (reference value: 6.8 %). It is filed as functional. Background: In flow cytometry, cells or beads pass a laser one at a time.
Assay [3] deals with HCT-116. Put plainly: Induction of apoptosis in human HCT116 cells expressing wild type p53 assessed as necrotic cells at 20 uM measured after 72 hrs by annexin V-FITC/propidium iodide staining-based flow cytometry analysis (reference value: 0.7 %). It is filed as functional.
In assay [4] the test system is HCT-116. Put plainly: Induction of apoptosis in human HCT116 cells expressing wild type p53 assessed as live cells at 20 uM measured after 72 hrs by annexin V-FITC/propidium iodide staining-based flow cytometry analysis (reference value: 83.7 %). The format is functional.
In assay [5] the test system is HCT-116. Put plainly: Induction of apoptosis in human HCT116 cells expressing wild type p53 assessed as early apoptotic cells expressing wild type p53 at 20 uM measured after 72 hrs by annexin V-FITC/propidium iodide staining-based flow cytometry analysis (reference value: 8.8 %). It is filed as functional.

`CC(C)(C)NC(=O)C(NCc1ccc(OCc2ccccc2Br)cc1)c1c(C(=O)O)[nH]c2cc(Cl)ccc12` (stereo not drawn): on Protein Mdm4, the Ki result is listed as “Not Active”.
Turning to `O=CN(Cc1ccc(OCc2ccc(Br)cc2)cc1)C(C(=O)NC12CC3CC(CC(C3)C1)C2)c1c(C(=O)O)[nH]c2cc(Cl)ccc12` (stereo not drawn), the Ki entry on Protein Mdm4 is listed as “Not Active”.
Take `CC(C)(C)NC(=O)C(c1c(C(=O)O)[nH]c2cc(Cl)ccc12)N(C=O)Cc1ccc(OCc2ccc([N+](=O)[O-])cc2)cc1` (stereo not drawn): the Ki result (in assay [1]; at Protein Mdm4) was “Not Active” throughout.
Regarding `CCOC(=O)c1[nH]c2cc(Cl)ccc2c1C(C(=O)NC(C)(C)C)N(C=O)Cc1ccc(OCc2ccc(C)cc2)cc1` (stereo not drawn), the Activity in the assay on HCT-116 [2] is reported as 48.8%; in the assay on HCT-116 [3], 0.9%; in the assay with HCT-116 [4] it was 13%; in the assay with HCT-116 [5], 37.3%.
Taken in the same sequence, the figures for `Cc1ccc(COc2ccc(CN(C=O)C(C(=O)NC(C)(C)C)c3c(C(=O)O)[nH]c4cc(Cl)ccc34)cc2)cc1` (stereo not drawn) were 8.7%, 4.7%, 76.2% and 10.3%.
On the same counts, the results for `CCOC(=O)c1[nH]c2cc(Cl)ccc2c1C(C(=O)NC(C)(C)C)N(C=O)Cc1ccc(OCc2ccccc2I)cc1` (stereo not drawn) are 6.2%, 1.3%, 86.3% and 6.3%.
As for `CC(C)(C)NC(=O)C(c1c(C(=O)O)[nH]c2cc(Cl)ccc12)N(C=O)Cc1ccc(OCc2ccncc2)cc1` (stereo not drawn), the Ki result on Protein Mdm4 is “Not Active”.
Still for that read-out and setting: next, `CC(C)(C)NC(=O)C(c1c(C(=O)O)[nH]c2cc(Cl)ccc12)N(C=O)Cc1cc(F)c(OCc2ccccc2)c(F)c1` (stereo not drawn): “Not Active”; `CC(C)(C)NC(=O)C(c1c(C(=O)O)[nH]c2cc(Cl)ccc12)N(C=O)CCc1ccc(OCc2ccc(Br)cc2)cc1` (stereo not drawn): “Not Active”.
Take `CC(C)(C)NC(=O)C(c1c(C(=O)O)[nH]c2cc(Cl)ccc12)N(C=O)Cc1ccc(OCc2c(Cl)cccc2Cl)cc1` (stereo not drawn): the Ki entry on Protein Mdm4 is “Not Active”.
For `CC(C)(C)NC(=O)C(c1c(C(=O)O)[nH]c2cc(Cl)ccc12)N(C=O)Cc1ccc(OCc2ccccc2I)cc1` (stereo not drawn), the Activity with HCT-116 [2] was found to be 6.9%; with HCT-116 [3], 1.3%; in the assay with HCT-116 [4], 84.4%; in the assay with HCT-116 [5], 7.1%.
On the same counts, the results for `COc1cccc(COc2ccc(CN(C=O)C(C(=O)NC(C)(C)C)c3c(C(=O)O)[nH]c4cc(Cl)ccc34)cc2)c1` (stereo not drawn) are 8.9%, 0.8%, 76.8% and 13.5%.
For `CC(C)(C)NC(=O)C(c1c(C(=O)O)[nH]c2cc(Cl)ccc12)N(C=O)CCCN1CCOCC1` (stereo not drawn), at Protein Mdm4, the Ki result is “Not Active”.
Take `CCOC(=O)c1[nH]c2cc(Cl)ccc2c1C(C(=O)NC(C)(C)C)N(C=O)Cc1ccc(OCc2ccc(Cl)c(Cl)c2)cc1` (stereo not drawn): the Activity with HCT-116 [2] came to 42.4%; with HCT-116 [3], 0.4%; in the assay with HCT-116 [4] it was 30%; with HCT-116 [5], 27.1%.
Take `O=CN(CCc1ccccc1)C(C(=O)NCCc1ccccc1)c1c(C(=O)O)[nH]c2cc(Cl)ccc12` (stereo not drawn): on Protein Mdm4, the Ki entry is “Not Active”.
For `CC(C)(C)NC(=O)C(c1c(C(=O)O)[nH]c2cc(Cl)ccc12)N(C=O)Cc1ccc(OCc2ccsc2)cc1` (stereo not drawn), the Ki result (in assay [1]; at Protein Mdm4) was “Not Active” throughout.
In the case of `CCOC(=O)c1[nH]c2cc(Cl)ccc2c1C(C(=O)NC(C)(C)C)N(C=O)Cc1ccc(OCCc2ccccc2)cc1` (stereo not drawn), the Activity came to 40.2% in the assay with HCT-116 [2], 0.7% in the assay on HCT-116 [3], 12.6% with HCT-116 [4] and 46.6% with HCT-116 [5].
With `O=CN(Cc1ccc(OCc2ccc(F)cc2)cc1)C(C(=O)NC12CC3CC(CC(C3)C1)C2)c1c(C(=O)O)[nH]c2cc(Cl)ccc12` (stereo not drawn), the Ki entry (in assay [1]; at Protein Mdm4) was “Not Active” each time.
Turning to `CCOC(=O)c1[nH]c2cc(Cl)ccc2c1C(C(=O)NC(C)(C)C)N(C=O)Cc1ccc(OCc2ccc(Br)cc2)cc1` (stereo not drawn), the Activity with HCT-116 [2] is 19.1%; with HCT-116 [3], 0.8%; in the assay with HCT-116 [4], 37.4%; with HCT-116 [5], 42.7%.
Take `CC(=O)N(Cc1ccc(OCc2ccc(F)cc2)cc1)C(C(=O)NC1CCCCC1)c1c(C(=O)O)[nH]c2cc(Cl)ccc12` (stereo not drawn): the Ki entry on Protein Mdm4 is reported as “Not Active”.
Turning to `CC(C)(C)NC(=O)C(c1c(C(=O)O)[nH]c2cc(Cl)ccc12)N(C=O)Cc1ccc(OCc2ccc(Br)cc2)cc1` (stereo not drawn), the Activity in the assay with HCT-116 [2] stood at 11.6%; in the assay with HCT-116 [3] it was 0.7%; with HCT-116 [4], 77.9%; in the assay with HCT-116 [5] it was 9.8%.
`CC(=O)N(Cc1ccc(OCc2ccccc2)cc1)C(C(=O)NC12CC3CC(CC(C3)C1)C2)c1c(C(=O)O)[nH]c2cc(Cl)ccc12` (stereo not drawn): the Ki result on Protein Mdm4 is recorded as “Not Active”.
`CC(C)(C)NC(=O)C(c1c(C(=O)O)[nH]c2cc(Cl)ccc12)N(C=O)Cc1ccc(OCc2ccc(Cl)c(Cl)c2)cc1` (stereo not drawn): the Activity with HCT-116 [2] is on record as 7.7%; with HCT-116 [3], 1.1%; in the assay with HCT-116 [4], 81.2%; in the assay with HCT-116 [5], 10%.
As to `CC(C)(C)NC(=O)C(c1c(C(=O)O)[nH]c2cc(Cl)ccc12)N(C=O)Cc1ccc(OCc2cc(F)cc(F)c2)cc1` (stereo not drawn), the Activity is recorded as 7.9% in the assay with HCT-116 [2], 0.7% in the assay with HCT-116 [3], 79.6% in the assay with HCT-116 [4] and 11.9% in the assay with HCT-116 [5].
Taken in the same sequence, the figures for `CCOC(=O)c1[nH]c2cc(Cl)ccc2c1C(C(=O)NC(C)(C)C)N(C=O)Cc1ccc(OCc2ccccc2Br)cc1` (stereo not drawn) were 57.2%, 0.7%, 9.9% and 32.3%.
In the case of `CCOC(=O)c1[nH]c2cc(Cl)ccc2c1C(C(=O)NC(C)(C)C)N(C=O)Cc1ccc(OCc2cccc(Cl)c2)cc1` (stereo not drawn), the Activity stood at 42.7% in the assay with HCT-116 [2], 1.2% in the assay on HCT-116 [3], 34.5% in the assay with HCT-116 [4] and 21.6% in the assay on HCT-116 [5].
`O=CN(CCc1ccccc1)C(C(=O)NC12CC3CC(CC(C3)C1)C2)c1c(C(=O)O)[nH]c2cc(Cl)ccc12` (stereo not drawn): the Ki entry on Protein Mdm4 is recorded as “Not Active”.
Turning to `CCOC(=O)c1[nH]c2cc(Cl)ccc2c1C(C(=O)NC(C)(C)C)N(C=O)Cc1ccc(OCc2ccsc2)cc1` (stereo not drawn), the Ki result at Protein Mdm4 is listed as “Not Active”.
Turning to `CCOC(=O)c1[nH]c2cc(Cl)ccc2c1C(C(=O)NC(C)(C)C)N(C=O)Cc1ccc(OCc2cccc(OC)c2)cc1` (stereo not drawn), the Activity came to 6.1% with HCT-116 [2], 0.8% in the assay on HCT-116 [3], 84.8% in the assay on HCT-116 [4] and 8.3% in the assay on HCT-116 [5].
`CC(C)(C)NC(=O)C(c1c(C(=O)O)[nH]c2cc(Cl)ccc12)N(C=O)Cc1ccc(OCc2cccnc2)cc1` (stereo not drawn): the Ki entry (in assay [1]; on Protein Mdm4) was “Not Active” in each case.
With `CCOC(=O)c1[nH]c2cc(Cl)ccc2c1C(C(=O)NC(C)(C)C)N(C=O)Cc1ccc(OCc2cc(F)cc(F)c2)cc1` (stereo not drawn), the Activity in the assay with HCT-116 [2] was determined as 40.2%; with HCT-116 [3], 0.5%; with HCT-116 [4], 14.1%; in the assay with HCT-116 [5] it was 45.2%.
Take `CC(C)(C)NC(=O)C(c1c(C(=O)NCCN2CCOCC2)[nH]c2cc(Cl)ccc12)N(C=O)Cc1ccc(OCc2ccccc2Br)cc1` (stereo not drawn): the Ki entry on Protein Mdm4 was “Not Active”.
For `CC(C)(C)NC(=O)C(c1c(C(=O)O)[nH]c2cc(Cl)ccc12)N(C=O)Cc1ccc(OCc2cccc(Cl)c2)cc1` (stereo not drawn), the Activity with HCT-116 [2] turned out to be 7.9%; with HCT-116 [3], 0.9%; in the assay on HCT-116 [4], 81%; in the assay on HCT-116 [5], 10.2%.
Take `CCOC(=O)c1[nH]c2cc(Cl)ccc2c1C(C(=O)NC(C)(C)C)N(C=O)Cc1ccc(NCc2ccc(Br)cc2)cc1` (stereo not drawn): the Activity was found to be 23.6% in the assay with HCT-116 [2], 2.6% with HCT-116 [3], 58.6% in the assay on HCT-116 [4] and 15.2% with HCT-116 [5]. Further, the Ki entry on Protein Mdm4 is listed as “Not Active”.
Consider `CC(C)(C)NC(=O)C(c1c(C(=O)O)[nH]c2cc(Cl)ccc12)N(C=O)Cc1ccc(OCCc2ccccc2)cc1` (stereo not drawn), for which the Activity was 10.7% with HCT-116 [2], 0.5% in the assay on HCT-116 [3], 80.7% with HCT-116 [4] and 8.1% in the assay with HCT-116 [5]. Besides, at Protein Mdm4, the Ki result is reported as “Not Active”.
Turning to `CC(C)(C)NC(=O)C(c1c(C(=O)O)[nH]c2cc(Cl)ccc12)N(C=O)Cc1ccc(NCc2ccc(Br)cc2)cc1` (stereo not drawn), the Activity was 18.8% with HCT-116 [2], 6% in the assay with HCT-116 [3], 65.6% in the assay on HCT-116 [4] and 9.6% with HCT-116 [5].
Taken in the same sequence, the figures for `CC(C)(C)NC(=O)C(c1c(C(=O)O)[nH]c2cc(Cl)ccc12)N(C=O)Cc1ccc(OCc2ccccc2Br)cc1` (racemic) were 14.6%, 1%, 69.1% and 15.4%.

For the origin of these results see ChEMBL document CHEMBL4359887, “Hitting on the move: Targeting intrinsically disordered protein states of the MDM2-p53 interaction” (Eur J Med Chem, 2019).
